In the experiment the target is Pst_13661 (Puccinia striiformis f. sp. tritici, UniProt A0A0L0V0Y3, T32S). The experiment is classed as biochemical. As to conditions: 100 µM.

Molecules are shown by their SMILES.

With `O=C(NO)c1ccccc1` [Compound 1, benzohydroxamic acid], the “Inhibition Rate Pst_13661 Mean” value stood at 100.8%.

Values taken from PMC10310857 (Nature Communications, 2023).
